Source: paper PMC8123395, “Aggregation and Its Influence on the Bioactivities of a Novel Antimicrobial Peptide, Temporin-PF, and Its Analogues” (International Journal of Molecular Sciences, 2021)
No end group written: not given here.

Legend:
[1] = test system: Enterococcus faecalis (NCTC 12697); assay type: cell-based; settings: NCTC 12697, pH 7.4
Method: (§1) The minimum inhibitory concentration (MIC) and minimum bactericidal concentration (MBC) of peptides against the selected microorganisms were determined using the broth-dilution method, as described in the previous study. […] were used in the assay: Gram-positive bacteria Staphylococcus aureus (NCTC 10788), Enterococcus faecalis (NCTC 12697), and methicillin-resistant S. aureus (MRSA) (NCTC 12493); Gram-negative bacteria Escherichia coli (NCTC 10418), Pseudomonas aeruginosa (ATCC 27853), and Klebsiella pneumoniae (ATCC 43816). All the strains were cultured in Mueller Hinton Broth (MHB), pH 7.4 (Oxiod, Basingstoke, UK). Each peptide was tested at the final concentration from 128 to 1 µM in two-fold dilution. Norfloxacin was applied as the positive control.

[2] = test system: Escherichia coli (NCTC 10418); assay type: cell-based; settings: NCTC 10418, pH 7.4
Method: as §1

[3] = test system: Klebsiella pneumoniae (ATCC 43816); assay type: cell-based; settings: ATCC 43816, pH 7.4
Method: as §1

[4] = test system: Pseudomonas aeruginosa (ATCC 27853); assay type: cell-based; settings: ATCC 27853, pH 7.4
Method: as §1

[5] = test system: Staphylococcus aureus (NCTC 10788); assay type: cell-based; settings: NCTC 10788, pH 7.4
Method: as §1

[6] = test system: methicillin-resistant S. aureus (MRSA) (NCTC 12493); assay type: cell-based; settings: NCTC 12493, pH 7.4
Method: as §1

[7] = test system: MRSA biofilm; assay type: cell-based; settings: biofilm, 24 h
Method: (§2) MBIC and MBEC assays were performed as previously described with minor modifications. For the MBIC assay, a suspension of broth diluted bacteria culture (5 × 10^5 CFU/mL) was incubated with the peptide solutions at 37 °C for 24 h. For MBEC assay, 100 μL inoculum culture was seeded to a 96-well-flat-bottom plate and incubated at 37 °C for 48 h to obtain the mature biofilm. Afterwards, the plate was washed by sterile phosphate-buffered saline (PBS; Sigma-Aldrich, Gillingham, UK) twice and treated with a series peptide solution at 37 °C for 24 h. Then, all the plates were washed with PBS and stained by 100 μL 0.1% crystal violet solution (Sigma-Aldrich, Gillingham, UK), and further dissolved by 30% acetic acid (Sigma-Aldrich, Gillingham, UK). The absorbance of each well was recorded by Synergy HT plate reader (Biotech, Minneapolis, MN, USA) at 595 nm.

[8] = test system: MRSA mature biofilm; assay type: cell-based; settings: mature biofilm, 48 h
Method: as §2

[9] = test system: S. aureus biofilm; assay type: cell-based; settings: biofilm, 24 h
Method: as §2

[10] = test system: S. aureus mature biofilm; assay type: cell-based; settings: mature biofilm, 48 h
Method: as §2

[11] = Circular dichroism, helix content by BeStSel; assay type: physicochemical; settings: CD, room temperature, BeStSel analysis
Method: Figure 8 CD spectra of TPF and the analogs (50 μM) prepared in 10 mM NH4AC, 50% TFE/10 mM NH4AC, 3 mM DPPG/DPPE (88:12) SUVs, and 3 mM DPPC SUVs. The spectra were averaged over three consecutive scans, and the solvent CD signal was subtracted.
The determination of the secondary structure of peptides was conducted using a JASCO J-815 CD Spectropolarimeter (JASCO Inc., Tokyo, Japan) as described in the previous study. Then, 50 μM of each peptide sample was prepared in the aqueous 10 mM ammonium acetate (NH4Ac; Sigma-Aldrich, Gillingham, UK) buffer, 50% (v/v) 2,2,2-trifluoroethanol (TFE; Sigma-Aldrich, Gillingham, UK), and 3 mM DPPG:DPPE (88:12) and DPPC small unilamellar liposomes/vesicles (SUVs) that were used to mimic the bacterial and mammalian erythrocyte cell membranes, respectively. The liposome was hydrated in deionized water and then sonicated for 15 min with an interval 30 s in an ice bath for generating SUVs. Samples were loaded in a 1-mm thickness quartz cuvette and analyzed at room temperature with the following parameters: scan range of 190–250 nm, scanning speed of […], 1 nm bandwidth, and 0.5 nm data pitch. The spectra were obtained by averaging data from three scans. The CD spectra were analyzed by BeStSel (http://bestsel.elte.hu/index.php, accessed on 16 May 2020) for the determination of secondary structure content.

[12] = RP-HPLC retention order of mixed peptides (overall hydrophobicity); assay type: physicochemical; settings: peptides mixed in equal ratio and subjected to RP-HPLC; Supplementary Figure S4
Method: All peptides were chemically synthesized and purified by RP-HPLC. They were further mixed with an equal ratio and subjected to RP-HPLC. […] Subsequently, all peptides (1 mg/mL) were dissolved in a series of widely used culture media (Figure 2).
N-terminal Phe of temporin was believed to participate in the packaging of “head-tail” oligomerization. […] Furthermore, Trp/D-Trp substitution carried out on des-Phe1 TPF enhanced the peptide aggregation. […] It may be related to the decrease of the helical content; however, it could also be caused by the change of aggregation effects. Previous studies have shown that AMPs with strong antimicrobial activity are present as monomers in an aqueous solution and aggregate on the membrane to disrupt the bacterial cell membrane. […] It has been proposed that some aggregation effects of AMPs could limit the interaction of the peptide with its target, thereby reducing the antibacterial efficacy. In the previous study, the zipper-like motif is associated with the bioactivities as well as the assembly in the LPS micelles, which was considered to arise from hydrophobic interactions mainly. However, the overall hydrophobicity of Trp/D-Trp substituted analogs is less than that of des-Phe1 TPF, as estimated by RP-HPLC analysis. We hypothesize that the enhanced assembly seen for Trp/D-Trp substituted analogs might be related to the increased content of aromatic residues, because it could promote the strength of π stacking or cation-π type interaction. However, the true relation has not been fully clarified so far, and the capability of aromatic moieties to promote aggregation could also be affected by the hydrophobicity, position, and the neighboring side chains in their three-dimensional conformation.

With LPLIAGLFGKIF-NH2 [des-Phe1 TPF] the MBC [1] was 32 µM, the MIC [1] was 32 µM and the MBC [2] was 128 µM. For the same substance, the MIC [2] was 64 µM, the MBC [3] was 128 µM and the MIC [3] was 128 µM. For the same substance, the MBC [4] was > 128 µM, the MIC [4] was > 128 µM and the MBC [5] was 16 µM. It also gave an MIC [5] of 16 µM, an MBC [6] of 32 µM and an MIC [6] of 32 µM. For the same substance, the MBIC [7] was 32/32 µM, the MBEC [8] was 32/32 µM and the MBIC [9] was 16 µM. For the same substance, the MBEC [10] was 32 µM, the “Helix Content % DPPC” value ([11]; 50 μM peptide in 3 mM DPPC SUVs (erythrocyte membrane mimic)) was 16.4% and the “Helix Content % DPPG/DPPE” value ([11]; 50 μM peptide in 3 mM DPPG/DPPE (88:12) SUVs (bacterial membrane mimic)) was 26.7%. The “Helix Content % 50% TFE” value ([11]; 50 μM peptide in 50% TFE/10 mM NH4AC, three scans averaged) was 37.7% and the “order of retention time (RP-HPLC, used as estimate of overall hydrophobicity)” value [12] was “TPF> des-Phe1 TPF> W-des-Phe1 TPF> dW-des-Phe1 TPF”.
